According to PubChem BioAssay AID330 (DTP/NCI, 2004):
“And” between values parts separate entries of the source, which are not always exact repeats. Equal values may be shown once. Toxic doses and inconclusive results are not listed. The calls were made as follows: active = survival T/C of 150% or more; inactive = T/C below 125% in these data.

Test system: P388 leukemia ip, CD2F1 mice, survival T/C
Assay: NCI In Vivo Anticancer Drug Screen. Data for tumor model P388 Leukemia (intraperitoneal) in CD2F1 (CDF1) mice
Conditions: endpoint: median survival time, higher = longer survival
In short: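 Mice carrying the transplanted tumor received test compound or vehicle. Survival was recorded in each group, and the value is the treated-group measurement divided by that of the vehicle-treated control group.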

[1] = dose: 12.5 mg/kg/injection, schedule: Q01DX001 (ip), vehicle: Klucel (hydroxypropylcellulose) (HPC)
[2] = dose: 25.0 mg/kg/injection, schedule: Q01DX001 (ip), vehicle: Klucel (hydroxypropylcellulose) (HPC)
[3] = dose: 50.0 mg/kg/injection, schedule: Q01DX001 (ip), vehicle: Klucel (hydroxypropylcellulose) (HPC)
[4] = dose: 12.5 mg/kg/injection, schedule: Q01DX005 (ip), vehicle: saline with Tween-80
[5] = dose: 25.0 mg/kg/injection, schedule: Q01DX005 (ip), vehicle: saline with Tween-80
[6] = dose: 50.0 mg/kg/injection, schedule: Q01DX005 (ip), vehicle: saline with Tween-80
[7] = dose: 50.0 mg/kg/injection, schedule: Q01DX009 (ip), vehicle: saline
[8] = dose: 100.0 mg/kg/injection, schedule: Q01DX009 (ip), vehicle: saline
[9] = dose: 200.0 mg/kg/injection, schedule: Q01DX009 (ip), vehicle: saline
[10] = dose: 25.0 mg/kg/injection, schedule: Q01DX009 (ip), vehicle: saline
[11] = dose: 60.0 mg/kg/injection, schedule: Q01DX005 (ip), vehicle: saline with Tween-80
[12] = dose: 120.0 mg/kg/injection, schedule: Q01DX005 (ip), vehicle: saline with Tween-80
[13] = dose: 240.0 mg/kg/injection, schedule: Q01DX005 (ip), vehicle: saline with Tween-80
[14] = dose: 50.0 mg/kg/injection, schedule: Q01DX009 (ip), vehicle: Klucel (hydroxypropylcellulose) (HPC)
[15] = dose: 100.0 mg/kg/injection, schedule: Q01DX009 (ip), vehicle: Klucel (hydroxypropylcellulose) (HPC)
[16] = dose: 200.0 mg/kg/injection, schedule: Q01DX009 (ip), vehicle: Klucel (hydroxypropylcellulose) (HPC)
[17] = dose: 60.0 mg/kg/injection, schedule: Q01DX005 (ip), vehicle: saline
[18] = dose: 120.0 mg/kg/injection, schedule: Q01DX005 (ip), vehicle: saline
[19] = dose: 100.0 mg/kg/injection, schedule: Q04DX003 (ip), vehicle: saline with Tween-80
[20] = dose: 200.0 mg/kg/injection, schedule: Q04DX003 (ip), vehicle: saline with Tween-80
[21] = dose: 400.0 mg/kg/injection, schedule: Q04DX003 (ip), vehicle: saline with Tween-80
[22] = dose: 100.0 mg/kg/injection, schedule: Q01DX009 (ip), vehicle: saline with Tween-80
[23] = dose: 200.0 mg/kg/injection, schedule: Q01DX009 (ip), vehicle: saline with Tween-80
[24] = dose: 400.0 mg/kg/injection, schedule: Q01DX009 (ip), vehicle: saline with Tween-80
[25] = dose: 60.0 mg/kg/injection, schedule: Q01DX005 (ip), vehicle: Klucel (hydroxypropylcellulose) (HPC)
[26] = dose: 120.0 mg/kg/injection, schedule: Q01DX005 (ip), vehicle: Klucel (hydroxypropylcellulose) (HPC)
[27] = dose: 240.0 mg/kg/injection, schedule: Q01DX005 (ip), vehicle: Klucel (hydroxypropylcellulose) (HPC)
[28] = dose: 12.5 mg/kg/injection, schedule: Q01DX009 (ip), vehicle: saline
[29] = dose: 50.0 mg/kg/injection, schedule: Q01DX005 (ip), vehicle: Klucel (hydroxypropylcellulose) (HPC)
[30] = dose: 100.0 mg/kg/injection, schedule: Q01DX005 (ip), vehicle: Klucel (hydroxypropylcellulose) (HPC)
[31] = dose: 200.0 mg/kg/injection, schedule: Q01DX005 (ip), vehicle: Klucel (hydroxypropylcellulose) (HPC)

Measured: T/C

O=C(c1ccccc1)C(c1ccccc1)n1nc2c(c1-c1ccccc1)CCC2 (stereo not given)
inactive: [1] 100 % of control | [2] 95 % of control | [3] 98 % of control | dose: 100.0 mg/kg/injection, schedule: Q01DX001 (ip), vehicle: Klucel (hydroxypropylcellulose) (HPC) 100 % of control

CCCCN(CCCC)CN(CCCC)CCCC
inactive: [4] 102 % of control | [5] 112 % of control | [6] 104 % of control and 114 % of control

C/C(=N\NC(N)=S)c1cccc(/C(C)=N/NC(N)=S)n1
inactive: dose: 12.5 mg/kg/injection, schedule: Q04DX003 (ip), vehicle: saline with Tween-80 91 % of control | dose: 25.0 mg/kg/injection, schedule: Q04DX003 (ip), vehicle: saline with Tween-80 93 % of control | dose: 50.0 mg/kg/injection, schedule: Q04DX003 (ip), vehicle: saline with Tween-80 89 % of control

C=C=C(COC(C)=O)ON1CCOCC1
inactive: dose: 100.0 mg/kg/injection, schedule: Q01DX001 (ip), vehicle: saline 99 % of control | dose: 200.0 mg/kg/injection, schedule: Q01DX001 (ip), vehicle: saline 103 % of control | dose: 400.0 mg/kg/injection, schedule: Q01DX001 (ip), vehicle: saline 100 % of control

N#Cc1cc(Br)ccc1N
inactive: [7] 105 % of control | [8] 107 % of control | [9] 96 % of control

CC(=NCC(=O)O)c1ccccc1
inactive: [10] 104 % of control | [7] 111 % of control | [8] 109 % of control

COCc1ccnn1-c1ccccc1C
inactive: [11] 97 % of control | [12] 97 % of control | [13] 104 % of control

Cc1cc(C)c(SSc2nnnn2-c2ccccc2)c(C)c1
inactive: [14] 108 % of control | [15] 103 % of control | [16] 94 % of control

O=C1OCN2C(=O)CCC12 (stereo not given)
inactive: [17] 109 % of control | [18] 97 % of control | dose: 240.0 mg/kg/injection, schedule: Q01DX005 (ip), vehicle: saline 86 % of control

O=C1OC2=C(CCCCC2)C(N2CCCCC2)C12SCCCS2 (stereo not given)
inactive: dose: 66.0 mg/kg/injection, schedule: Q04DX003 (ip), vehicle: saline with Tween-80 100 % of control and 96 % of control | [19] 98 % of control and 91 % of control | dose: 150.0 mg/kg/injection, schedule: Q04DX003 (ip), vehicle: saline with Tween-80 110 % of control and 93 % of control | [20] 104 % of control | [21] 93 % of control

O=C(CN1CCOCC1)Nc1cccc(C(F)(F)F)c1
inactive: [22] 110 % of control | [23] 100 % of control | [24] 110 % of control

O=C1C=CC(O)C1(O)CO (stereo not given)
inactive: dose: 2.5 mg/kg/injection, schedule: Q01DX009 (ip), vehicle: saline + alcohol 98 % of control | dose: 5.0 mg/kg/injection, schedule: Q01DX009 (ip), vehicle: saline + alcohol 100 % of control | dose: 10.0 mg/kg/injection, schedule: Q01DX009 (ip), vehicle: saline + alcohol 105 % of control | dose: 20.0 mg/kg/injection, schedule: Q01DX009 (ip), vehicle: saline + alcohol 101 % of control

Cc1cccc(/C=N/Nc2cc(C)c3ccccc3n2)n1
inactive: [4] 100 % of control | [5] 93 % of control | [6] 101 % of control and 104 % of control

NC12CCC(N)(c3ccccc31)c1ccccc12
inactive: [25] 93 % of control | [26] 98 % of control | [27] 98 % of control

Cc1cnc2cc(Cl)ccc2c1SCC(=O)O
inactive: [6] 104 % of control | dose: 100.0 mg/kg/injection, schedule: Q01DX005 (ip), vehicle: saline with Tween-80 108 % of control | dose: 200.0 mg/kg/injection, schedule: Q01DX005 (ip), vehicle: saline with Tween-80 108 % of control

NC(=O)C(C(N)=O)=C1C(=O)c2ccccc2C1=O
inactive: [25] 95 % of control | [26] 100 % of control | [27] 99 % of control

O=C(C1=C(NCc2ccccc2)CCCC1)c1ccccc1
inactive: [28] 97 % of control | [10] 100 % of control | [7] 104 % of control and 109 % of control

C[P+]12CN3CN(CN(C3)C1)C2
inactive: [7] 107 % of control | [8] 107 % of control | [9] 101 % of control

Cc1cc2c(c(=O)o1)C(C)CC(c1c(O)cc(C)oc1=O)O2 (stereo not given)
inactive: [11] 114 % of control | [12] 108 % of control | [13] 103 % of control

CCCCCCC(=O)CC(SCC(NC(C)=O)C(=O)O)c1ccccc1Cl (stereo not given)
inactive: [17] 101 % of control | [18] 93 % of control

COC(=O)/C=C\C=[N+](/[O-])C(C)(C)C
inactive: [1] 114 % of control | [2] 113 % of control | [3] 113 % of control

[N-]=[N+]=NP1(=O)OC(c2ccccc2)=CCN1c1ccccc1 (stereo not given)
inactive: [29] 105 % of control | [30] 103 % of control | [31] 100 % of control

O=c1[nH]c(=O)n(C(c2ccccc2)(c2ccccc2)c2ccccc2)cc1N(CCO)CCO
inactive: [29] 100 % of control | [30] 97 % of control | [31] 98 % of control

c1ccc2c(C3CCCN4CCCCC34)c[nH]c2c1 (stereo not given)
inactive: dose: 12.5 mg/kg/injection, schedule: Q04DX002 (ip), vehicle: saline with Tween-80 105 % of control | dose: 25.0 mg/kg/injection, schedule: Q04DX002 (ip), vehicle: saline with Tween-80 102 % of control | dose: 50.0 mg/kg/injection, schedule: Q04DX002 (ip), vehicle: saline with Tween-80 100 % of control

O=C1NC(=S)NNC12CCCCC2
inactive: dose: 25.0 mg/kg/injection, schedule: Q01DX009 (ip), vehicle: Klucel (hydroxypropylcellulose) (HPC) 101 % of control | [14] 101 % of control and 108 % of control | [15] 112 % of control and 97 % of control | [16] 105 % of control (2×) and 113 % of control

O=c1c2ccccc2sc2c1c(N(CCO)CCO)cc1ccccc12
inactive: dose: 25.0 mg/kg/injection, schedule: Q01DX005 (ip), vehicle: distilled water + Tween-80 102 % of control | dose: 50.0 mg/kg/injection, schedule: Q01DX005 (ip), vehicle: distilled water + Tween-80 97 % of control | dose: 100.0 mg/kg/injection, schedule: Q01DX005 (ip), vehicle: distilled water + Tween-80 92 % of control

CNC(=O)c1ccccc1O
inactive: dose: 50.0 mg/kg/injection, schedule: Q01DX009 (ip), vehicle: saline with Tween-80 103 % of control | [22] 103 % of control | [23] 95 % of control | [24] 90 % of control

c1ccc(CC[n+]2ccccc2)cc1
inactive: [28] 88 % of control | [10] 87 % of control

CC(=O)OC1C2=C(C)C(=O)OC2=CC2=CCCC(C)C21C (stereo not given)
inactive: dose: 4.0 mg/kg/injection, schedule: Q01DX009 (ip), vehicle: Klucel (hydroxypropylcellulose) (HPC) 102 % of control | dose: 8.0 mg/kg/injection, schedule: Q01DX009 (ip), vehicle: Klucel (hydroxypropylcellulose) (HPC) 91 % of control | dose: 16.0 mg/kg/injection, schedule: Q01DX009 (ip), vehicle: Klucel (hydroxypropylcellulose) (HPC) 102 % of control | dose: 32.0 mg/kg/injection, schedule: Q01DX009 (ip), vehicle: Klucel (hydroxypropylcellulose) (HPC) 109 % of control

COC(=O)C1C2C=CC(CC2)C1C(=O)OC (stereo not given)
inactive: [19] 98 % of control | [20] 102 % of control | [21] 89 % of control
